Test results reported in US20170362210A1, “ANTI-ESTROGENIC COMPOUNDS” (PFIZER INC., priority 2015, published 2017).

What was measured:
[1] = molecular target: T1, ERα (Homo sapiens, UniProt P03372); assay: ERα expression in MCF-7 cell lysates (immunoblot); format: cell-based; settings: MCF-7 cells, 100 nM compound, serum-free medium, 24 hours, immunoblot band intensity
T1 construct: ERα expression was detected in MCF-7 cell lysates treated with 100 nM antiestrogens in serum-free medium for 24 hours; endogenous in cells; host or cells: MCF-7
T1 sequence (P03372 1-595): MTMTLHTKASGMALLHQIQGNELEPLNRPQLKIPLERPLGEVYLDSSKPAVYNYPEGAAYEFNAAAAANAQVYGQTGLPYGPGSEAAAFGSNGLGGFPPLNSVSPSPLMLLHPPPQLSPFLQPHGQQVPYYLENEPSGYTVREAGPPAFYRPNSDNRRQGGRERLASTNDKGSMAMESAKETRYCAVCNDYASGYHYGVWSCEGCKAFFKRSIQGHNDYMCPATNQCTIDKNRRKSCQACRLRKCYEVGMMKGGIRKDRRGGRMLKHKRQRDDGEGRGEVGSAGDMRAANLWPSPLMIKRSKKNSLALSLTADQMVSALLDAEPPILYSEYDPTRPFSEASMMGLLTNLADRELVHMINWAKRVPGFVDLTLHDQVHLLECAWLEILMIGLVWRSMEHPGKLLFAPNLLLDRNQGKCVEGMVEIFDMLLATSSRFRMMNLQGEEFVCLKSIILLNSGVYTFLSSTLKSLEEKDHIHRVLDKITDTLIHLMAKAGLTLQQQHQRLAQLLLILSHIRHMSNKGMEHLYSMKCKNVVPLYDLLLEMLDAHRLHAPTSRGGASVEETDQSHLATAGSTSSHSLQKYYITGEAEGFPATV
Procedure: ERα expression was detected in MCF-7 cell lysates treated with 100 nM antiestrogens in serum-free medium for 24 hours and immunoblotted with an antibody specific to ERα.
Band intensity was normalized relative to vehicle for each individual experiment and listed in Table 3 (Relative change ERα levels (% vehicle)).

[2] = tested on: AP activity in ECC-1 cells; assay: Alkaline phosphatase (AP) assay in ECC-1 cells co-treated with 500 pM E2; format: cell-based, human; settings: 3 days
Procedure: (§1) Method for performing the alkaline phosphatase (AP) assay. ECC-1 cells (American Type Culture Collection, Manassas, Va.) were maintained in RPMI medium plus 10% fetal bovine serum at 37° C. At the beginning of the assay trypsinized cells were resuspended in RPMI medium plus 5% charcoal dextran stripped serum (CDSS, (Hyclone, Logan, Utah)) and plated at a density of 25-50 k cells per well into a 96-well plate for at least 6 hours. Representative compounds were diluted in serum-free medium and added 1:1 to plated cells in replicate wells (2.5% CDSS final). Plates were incubated for 3 days at 37° C. and subsequently frozen at −80° C. to lyse cells after removing the medium. Thawed plates were incubated with a chromogenic substrate of AP, p-nitrophenyl phosphate (Invitrogen, Grand Island, N.Y.), for 40 minutes at 40° C. Absorbances were read at 405 nm using a plate spectrophotometer. AP activity was normalized to 500 pM 17β-estradiol (E2), reported as the maximum activity observed for each individual experiment, regardless of dose.
AP activity was assayed as in Example 28 but cells were co-treated with 500 pM E2.

[3] = tested on: MCF-7 breast cancer cells; assay: Inhibition of E2-stimulated proliferation of MCF-7 breast cancer cells; format: cell-based, human; settings: 100 pM E2, hormone-depleted medium, 6-8 days
Procedure: Proliferation of MCF-7 breast cancer cells was measured using a fluorescent DNA binding dye 6-8 days after treatment in triplicate with representative compounds in the presence of 100 pM E2 in hormone-depleted medium. IC50's were calculated from individual experiments as in Example 25.

[4] = tested on: AP activity in ECC-1 cells; assay: Alkaline phosphatase (AP) assay in ECC-1 uterine cells, induction of AP activity; format: cell-based, human; settings: 3 days, normalized to 500 pM E2, maximum activity observed regardless of dose
Procedure: as §1

[5] = tested on: estrogen-responsive reporter gene (ERE-tk109-Luc) in MCF-7 cells; assay: Inhibition of E2-induced transcription, ERE-tk109-Luc reporter gene in MCF-7 cells; format: cell-based, human; settings: MCF-7 cells, 100 pM 17β-estradiol (E2), 18-22 hours, read-out: IC50, inhibition of E2-induced transcription in breast cells
Procedure: Representative compounds were tested for their inhibitory activity of estrogen according to the assay methods described in Hodges-Gallagher, L., Valentine, C. V., El Bader, S. and Kushner, P. J. (2007) “Histone Deacetylase Inhibitors Enhance the Efficacy of Hormonal Therapy Agents on Breast Cancer Cells and Blocks Anti-estrogen-Driven Uterine Cell Proliferation” Breast Cancer Res Treat, November; 105(3):297-309. Specifically, an estrogen-responsive reporter gene (ERE-tk109-Luc) was transiently transfected into MCF-7 cells and treated with anti-estrogens in triplicate in the presence of 100 pM 17β-estradiol (E2) for 18-22 hours. Luciferase activity was normalized to activity of E2 alone and IC50's were calculated using the least squares fit method.

Compound | Relative change ERα levels (% vehicle) [1] | AP activity (% E2), cells co-treated with 500 pM E2 [2] | IC50 ([3]; Homo sapiens, MCF7, MCF-7 cells) | Induction of AP activity in uterine cells (% E2) [4] | IC50 [5] | IC50 ([3]; MCF-7 cells)
CC1=C(c2ccc(O)cc2)C(c2ccc(OC3CN(CCC(F)(F)F)C3)cc2)Oc2cc(O)ccc21 (single isomer, unassigned) [Compound 110, 3-(4-hydroxyphenyl)-4-methyl-2-(4-((1-(3,3,3-trifluoropropyl)azetidin-3-yl)oxy)phenyl)-2H-chromen-7-ol] | 104 % veh | 36 % E2 | 0.216 µM | 35 % E2 | 0.014 µM | 
CCCN1CC(Cc2ccc(C3Oc4cc(O)ccc4C(C)=C3c3ccc(O)cc3)cc2)C1 (single isomer, unassigned) [Compound 102, 3-(4-hydroxyphenyl)-4-methyl-2-(4-((1-propylazetidin-3-yl)methyl)phenyl)-2H-chromen-7-ol] | 50 % veh | 8 % E2 |  | 9 % E2 | 0.002 µM | 0.006 µM
CC1=C(c2ccc(O)cc2)C(c2ccc(OC3CN(CCC(F)(F)F)C3)cc2)Oc2cc(O)ccc21 (single isomer, unassigned) [Compound 111, 3-(4-hydroxyphenyl)-4-methyl-2-(4-((1-(3,3,3-trifluoropropyl)azetidin-3-yl)oxy)phenyl)-2H-chromen-7-ol] | 82 % veh | 61 % E2 |  | 32 % E2 | 0.165 µM | > 0.3 µM
CCCN1CC(Cc2ccc(C3Oc4cc(O)ccc4C(C)=C3c3ccc(O)cc3)cc2F)C1 (single isomer, unassigned) [Compound 113, 2-(3-fluoro-4-((1-propylazetidin-3-yl)methyl)phenyl)-3-(4-hydroxyphenyl)-4-methyl-2H-chromen-7-ol] | 38 % veh | 15 % E2 |  | 17 % E2 | 0.013 µM | 0.024 µM
